Data as given in patent US4925930A, “Synthesis and anti-leukemic activity of alkyl-1-(β-D-ribofuranosyl)[1,2,4]triazole-3-carboximidates” (Nucleic Acid Research Institute, priority 1988, dated 1990).
Where “and” joins values, the source holds several entries; their conditions need not be identical. Equal values may be shown once. Read-outs that look alike come from different tables or passages of the source.

What was measured:
[1] = system: adeno type 2; type: cell-based; conditions: cell culture
[2] = system: visna; type: cell-based; conditions: cell culture
[3] = system: CCRF-CEM human T lymphoblastic leukemia; assay: In vitro growth inhibition of CCRF-CEM; type: cell-based; conditions: in vitro cell culture
Method: (§1) Compounds (4)and (5) were also tested in vitro for their capacity to inhibit the growth of L1210 murine lymphocytic leukemia, WI-L2 human B lymphoblastic leukemia, and CCRF-CEM human T lymphoblastic leukemia in vitro.

[4] = system: Friend leukemia; conditions: for Friend leukemia-related splenomegaly diminished: nontoxic dosing; for Spleen Weight / tox (in Spleen Weight column): day 1,3,5,7,9,11, ip; for Spleen Weight: control w/tumor 1538 ± 561, wo/tumor 82 ± 11
[5] = system: influenza A; type: cell-based
[6] = system: L1210 murine lymphocytic leukemia; assay: In vitro cytotoxicity / growth inhibition of L1210 murine lymphocytic leukemia; type: cell-based; conditions: for in vitro growth inhibition: L1210, in vitro cell culture; for cytotoxicity for L1210 cells: cells growing in vitro
[7] = system: herpes simplex type 2 viruses; type: cell-based; conditions: cell culture
[8] = system: WI-L2 human B lymphoblastic leukemia; assay: In vitro growth inhibition of WI-L2; type: cell-based; conditions: in vitro cell culture
Method: as §1

[9] = system: viruses; assay: Cell culture antiviral activity (general statement); type: cell-based
[10] = in water; for maximum dosage which could be delivered as a single bolus (maximum soluble dosage): 0.01 ml/gram mouse weight
[11] = in vivo; type: in vivo; conditions: mouse, in vivo, ip, read-out: maximum non-lethal dosage
Text: (§2) In Vivo assessments of therapeutic efficacy and host toxicity with murine leukemia L1210 were made as detailed in M. Kuehl; D. I. Brixner; A. D. Broom; T. L. Avery; R. L. Blakley, Cancer Res., 1988, 48, 1481.
(§3) ^b Treatment responses (6 mice/treatment group) presented as % T/C
(§4) ^c Calculations of residual leukemic cell populations were made using
(§5) ^a Except where otherwise indicated, all solutions were delivered ip

[12] = system: murine leukemia L1210; assay: in vivo; type: in vivo; conditions: for Residual Cell Population After Last Treatment: calculated from inoculum response data; for antitumor activity in vivo: summary, as per Examples 6 and 7 (L1210 and Friend leukemia)
Text: as §2, §3, §4, §5

[13] = system: semliki forest; type: cell-based; conditions: cell culture
[14] = system: parainfluenza type 3; type: cell-based; conditions: cell culture
[15] = system: rhino A; type: cell-based; conditions: cell culture
[16] = system: HIV; conditions: human T lymphocytes; 50 μg/mL; cited from earlier work
[17] = bid, day 1,3,5,7, 480 mg/kg, ip
[18] = qd, day 1-7, 480 mg/kg, ip, 480 mg/kg
[19] = qd, day 1, 480 mg/kg, ip, 480 mg/kg

CCOC(=N)c1ncn([C@@H]2O[C@H](CO)[C@@H](O)[C@H]2O)n1 [Compound (5), Ethyl-1-(β-D-ribofuranosyl)[1,2,4]triazole-3-carboximidate]
antiviral activity [1]: inactive | antiviral activity [2]: inactive | in vitro growth inhibition [3]: neither compound demonstrated in vitro growth inhibition | Friend leukemia-related splenomegaly diminished [4]: not | Spleen Weight ([4]; qd, 480 mg/kg): 1257 ± 185 mg | tox (in Spleen Weight column) ([4]; qd, 800 mg/kg): tox | tox (in Spleen Weight column) ([4]; qd, 1333 mg/kg): tox | antiviral activity [5]: inactive | in vitro growth inhibition [6]: neither compound demonstrated in vitro growth inhibition | cytotoxicity for L1210 cells [6]: neither compound (4) nor compound (5) was cytotoxic | antiviral activity [7]: inactive | in vitro growth inhibition [8]: neither compound demonstrated in vitro growth inhibition | cell culture antiviral activity [9]: devoid themselves of cell culture antiviral activity | maximum dosage which could be delivered as a single bolus (maximum soluble dosage) [10]: 3704 mg/kg | MTD ([11]; qd day 1): 1330 mg/kg | MTD ([11]; qd days 1-7): 288 mg/kg | dosage/schedule dependence of anti-L1210 activity ([12]; mouse, in vivo): more dosage than schedule dependent | lethal toxicity for L1210-inoculated mice ([12]; mouse, in vivo, 3704 mg/kg): lethally toxic | therapeutic efficacy ([12]; qd day 1, 288 mg/kg): decline of therapeutic efficacy | leukemic cell kill ([12]; qd day 1, 1333 mg/kg, gauged by inoculum response data): 98.7% | T/C ([12]; qd day 1, maximum non-lethal dosage, 1333 mg/kg): 149 | lethal toxicity ([12]; qd days 1-7, compared with qd day 1): lethal toxicity was produced by lower dosages | increase in mean life span (T/C) ([12]; qd days 1-7, maximum non-lethal dosage, 288 mg/kg): 144 | Postinoculation Lifespan (% T/C) ([12]; qd, day 1-7, 288 mg/kg, ip): 144 % T/C | Residual Cell Population After Last Treatment ([12]; qd, day 1-7, 288 mg/kg, ip): 1.7 % of control | Postinoculation Lifespan (% T/C) ([12]; qd, day 1-7, 480 mg/kg, ip): 134 % T/C | Postinoculation Lifespan (% T/C) ([12]; qd, day 1-7, 800 mg/kg, ip): 70 % T/C | Postinoculation Lifespan (% T/C) ([12]; qd, day 1, 288 mg/kg, ip): 114 % T/C | Residual Cell Population After Last Treatment ([12]; qd, day 1, 288 mg/kg, ip): 27.0 % of control | Postinoculation Lifespan (% T/C) ([12]; qd, day 1, 480 mg/kg, ip): 149 % T/C | Residual Cell Population After Last Treatment ([12]; qd, day 1, 480 mg/kg, ip): 1.1 % of control | Postinoculation Lifespan (% T/C) ([12]; qd, day 1, 800 mg/kg, ip, 800 mg/kg): 159 % T/C and 144 % T/C | Postinoculation Lifespan (% T/C) ([12]; qd, day 1, 1333 mg/kg, ip): 149 % T/C | Residual Cell Population After Last Treatment ([12]; qd, day 1, 1333 mg/kg, ip): 1.3 % of control | Postinoculation Lifespan (% T/C) ([12]; qd, day 1, 2222 mg/kg, ip): 92 % T/C | Postinoculation Lifespan (% T/C) ([12]; qd, day 1, 3704 mg/kg, ip): 48 % T/C | antitumor activity in vivo [12]: significant antitumor activity in vivo | antiviral activity [13]: inactive | antiviral activity [14]: inactive | antiviral activity [15]: inactive

NC(=O)c1ncn([C@@H]2O[C@H](CO)[C@@H](O)[C@H]2O)n1 [ribavirin, 1-(β-D-ribofuranosyl)-[1,2,4]triazole-3-carboxamide]
inhibition of HIV replication [16]: inhibits the replication

COC(=N)c1ncn([C@@H]2O[C@H](CO)[C@@H](O)[C@H]2O)n1 [Compound (4), Methyl-1-(β-D-ribofuranosyl)[1,2,4]triazole-3-carboximidate]
antiviral activity [1]: inactive | antiviral activity [2]: inactive | in vitro growth inhibition [3]: neither compound demonstrated in vitro growth inhibition | Spleen Weight ([4]; bid, 288 mg/kg, P < 0.005): 150 ± 53 mg | tox (in Spleen Weight column) ([4]; bid, 480 mg/kg): tox | Friend leukemia-related splenomegaly diminished [4]: significantly diminished | Spleen Weight ([4]; qd, 288 mg/kg, P < 0.02): 599 ± 133 mg | Spleen Weight ([4]; qd, 480 mg/kg, P < 0.01): 216 ± 60 mg | antiviral activity [5]: inactive | in vitro growth inhibition [6]: neither compound demonstrated in vitro growth inhibition | cytotoxicity for L1210 cells [6]: neither compound (4) nor compound (5) was cytotoxic | antiviral activity [7]: inactive | in vitro growth inhibition [8]: neither compound demonstrated in vitro growth inhibition | cell culture antiviral activity [9]: devoid themselves of cell culture antiviral activity | water solubility relative to biological activity [10]: limited water solubility | maximum dosage which could be delivered as a single bolus (maximum soluble dosage) [10]: 480 mg/kg | Postinoculation Lifespan (% T/C) [12, 17]: 162 % T/C | Residual Cell Population After Last Treatment [12, 17]: 12 % of control | Postinoculation Lifespan (% T/C) ([12]; bid, day 1-7, 480 mg/kg, ip): 101 % T/C | Postinoculation Lifespan (% T/C) ([12]; bid, day 1, 480 mg/kg, ip): 125 % T/C | Residual Cell Population After Last Treatment ([12]; bid, day 1, 480 mg/kg, ip): 9 % of control | T/C ([12]; qd day 1, maximum soluble dosage, 480 mg/kg, repeated): ≈ 115 | Postinoculation Lifespan (% T/C) ([12]; qd, day 1,3,5,7, 480 mg/kg, ip): 121 % T/C | Residual Cell Population After Last Treatment ([12]; qd, day 1,3,5,7, 480 mg/kg, ip): 46 % of control | Postinoculation Lifespan (% T/C) ([12]; qd, day 1,4,7, 480 mg/kg, ip): 119 % T/C | Residual Cell Population After Last Treatment ([12]; qd, day 1,4,7, 480 mg/kg, ip): 73 % of control | Postinoculation Lifespan (% T/C) [12, 18]: 162 % T/C and 142 % T/C | Residual Cell Population After Last Treatment [12, 18]: 12 % of control and 7 % of control | Postinoculation Lifespan (% T/C) ([12]; qd, day 1-7, 480 mg/kg, po): 97 % T/C | Residual Cell Population After Last Treatment ([12]; qd, day 1-7, 480 mg/kg, po): 139 % of control | Postinoculation Lifespan (% T/C) [12, 19]: 113 % T/C and 114 % T/C and 116 % T/C | Residual Cell Population After Last Treatment [12, 19]: 32 % of control and 30 % of control and 21 % of control | lethal toxicity ([12]; qid day 1, 480 mg/kg/injection): lethally toxic | Postinoculation Lifespan (% T/C) ([12]; qid, day 1, 480 mg/kg, ip): 60 % T/C | antitumor activity in vivo [12]: significant antitumor activity in vivo | T/C ([12]; tid day 1, 480 mg/kg/injection): 153 | leukemic cell kill ([12]; tid day 1, 480 mg/kg/injection): > 99% | Postinoculation Lifespan (% T/C) ([12]; tid, day 1,3,5,7, 480 mg/kg, ip): 76 % T/C | Postinoculation Lifespan (% T/C) ([12]; tid, day 1-7, 480 mg/kg, ip): 61 % T/C | Postinoculation Lifespan (% T/C) ([12]; tid, day 1, 480 mg/kg, ip): 153 % T/C | Residual Cell Population After Last Treatment ([12]; tid, day 1, 480 mg/kg, ip): 0.6 % of control | antiviral activity [13]: inactive | antiviral activity [14]: inactive | antiviral activity [15]: inactive
